Where two headings read alike, the source gives them in different places. Marks after values point to notes of the source that are not given here.
What was measured:
[1] = test system: SA-138 (clinical isolate); assay: MIC broth microdilution, SA-138; assay type: cell-based, Staphylococcus aureus
Method: (§1) The minimum inhibitory concentration (MIC) for each tested compound was determined by the broth microdilution method as recommended by the Clinical and Laboratory Standards Institute (CLSI). In a 96-well plate, eleven two-fold serial dilutions of each compound were made in a final volume of 100 μL Luria Broth. Each well was inoculated with ˜10^5 bacterial cells at the initial time of incubation, prepared from a fresh log phase culture (OD600 of 0.5 to 1.0 depending on bacterial strain). […] (MIC values were supported by spectrophotometric readings at OD600). DMSO served as our vehicle and negative control in each microdilution MIC assay. DMSO was serially diluted with a top concentration of 1% v/v.
(§2) Each well was inoculated with ˜10^5 bacterial cells at the initial time of incubation, prepared from a fresh log phase culture (OD600 of 0.5 to 1.0 depending on bacterial strain). […] The concentration range tested for each compound during this study was 0.10 to 100 μM. DMSO served as our vehicle and negative control in each microdilution MIC assay. DMSO was serially diluted with a top concentration of 1% v/v. All MIC values were obtained from a minimum of three independent experiments.

[2] = test system: Pseudomonas aeruginosa (PAO1); assay: MIC broth microdilution, PAO1; assay type: cell-based
Method: (§3) The minimum inhibitory concentration (MIC) for each tested compound was determined by the broth microdilution method as recommended by the Clinical and Laboratory Standards Institute (CLSI). In a 96-well plate, eleven two-fold serial dilutions of each compound were made in a final volume of 100 μL Luria Broth. Each well was inoculated with ˜10^5 bacterial cells at the initial time of incubation, prepared from a fresh log phase culture (OD600 of 0.5 to 1.0 depending on bacterial strain). The MIC was defined as the lowest concentration of compound that prevented bacterial growth after incubating 16 to 18 hours at 37° C. (MIC values were supported by spectrophotometric readings at OD600). DMSO served as our vehicle and negative control in each microdilution MIC assay. DMSO was serially diluted with a top concentration of 1% v/v.
as §3, with “for each compound was” for “for each tested compound was”, “Standards Institute (CLSI).^6 In a” for “Standards Institute (CLSI). In a”, “concentration of test compound that” for “concentration of compound that”, “37° C. The concentration range tested for each compound during this study was 0.10 to 100 μM. DMSO served” for “37° C. (MIC values were supported by spectrophotometric readings at OD600). DMSO served”, “1% v/v. All MIC values were obtained from a minimum of three independent experiments.” for “1% v/v.”

[3] = test system: vancomycin-resistant Enterococcus faecium (VRE strain ATCC 700221); assay: MIC broth microdilution, VRE 700221; assay type: cell-based; conditions: for MIC E. faecium VRE 700221: Table 1A; for MIC VRE 700221: Table 4
Method: as §3
as §3, with “for each compound was” for “for each tested compound was”, “Standards Institute (CLSI).^6 In a” for “Standards Institute (CLSI). In a”, “concentration of test compound that” for “concentration of compound that”, “37° C. The concentration range tested for each compound during this study was 0.10 to 100 μM. DMSO served” for “37° C. (MIC values were supported by spectrophotometric readings at OD600). DMSO served”, “1% v/v. All MIC values were obtained from a minimum of three independent experiments.” for “1% v/v.”

[4] = test system: methicillin-sensitive Staphylococcus aureus ATCC 29213; assay: MIC broth microdilution, S. aureus 29213; assay type: cell-based
Method: as §1, §2

[5] = test system: SA-147 (clinical isolate); assay: MIC broth microdilution, SA-147; assay type: cell-based, Staphylococcus aureus
Method: as §1, §2

[6] = test system: methicillin-resistant Staphylococcus epidermidis (MRSE strain ATCC 35984); assay: MIC broth microdilution, MRSE 35984; assay type: cell-based; conditions: for MIC S. epidermidis MRSE 35984: Table 1A; for MIC MRSE 35984: Table 4
Method: as §3
as §3, with “for each compound was” for “for each tested compound was”, “Standards Institute (CLSI).^6 In a” for “Standards Institute (CLSI). In a”, “concentration of test compound that” for “concentration of compound that”, “37° C. The concentration range tested for each compound during this study was 0.10 to 100 μM. DMSO served” for “37° C. (MIC values were supported by spectrophotometric readings at OD600). DMSO served”, “1% v/v. All MIC values were obtained from a minimum of three independent experiments.” for “1% v/v.”

[7] = test system: SA-156 (clinical isolate); assay: MIC broth microdilution, SA-156; assay type: cell-based, Staphylococcus aureus
Method: as §1, §2

[8] = test system: Acinetobacter baumannii (ATCC 1794); assay: MIC broth microdilution, A. baumannii 1794; assay type: cell-based; conditions: for MIC A. baumannii 1794: Table 1A, in µM; for MIC A. bau. 1794: Table 4
Method: as §3
as §3, with “for each compound was” for “for each tested compound was”, “Standards Institute (CLSI).^6 In a” for “Standards Institute (CLSI). In a”, “concentration of test compound that” for “concentration of compound that”, “37° C. The concentration range tested for each compound during this study was 0.10 to 100 μM. DMSO served” for “37° C. (MIC values were supported by spectrophotometric readings at OD600). DMSO served”, “1% v/v. All MIC values were obtained from a minimum of three independent experiments.” for “1% v/v.”

[9] = test system: MRSA-1 (clinical isolate); assay: MIC broth microdilution, MRSA-1; assay type: cell-based, Staphylococcus aureus
Method: as §1, §2

MRSA BAA-1707 = assay: MIC broth microdilution, MRSA BAA-1707; assay type: cell-based, Staphylococcus aureus; conditions: for MIC: read-out: MIC MRSA BAA-1707; for MIC MRSA 1707: Table 4
Method: as §1, §2

[10] = test system: SA-129 (clinical isolate); assay: MIC broth microdilution, SA-129; assay type: cell-based, Staphylococcus aureus
Method: as §1, §2

[11] = test system: methicillin-resistant Staphylococcus aureus MRSA-2 (clinical isolate); assay: MIC broth microdilution, MRSA-2; assay type: cell-based
Method: as §3
as §3, with “for each compound was” for “for each tested compound was”, “Standards Institute (CLSI).^6 In a” for “Standards Institute (CLSI). In a”, “concentration of test compound that” for “concentration of compound that”, “37° C. The concentration range tested for each compound during this study was 0.10 to 100 μM. DMSO served” for “37° C. (MIC values were supported by spectrophotometric readings at OD600). DMSO served”, “1% v/v. All MIC values were obtained from a minimum of three independent experiments.” for “1% v/v.”

MRSA BAA-44 = assay: MIC broth microdilution, MRSA BAA-44; assay type: cell-based, Staphylococcus aureus
Method: as §1, §2

SMILES | MIC PAO1 ([2]; Table 1A) [µM] | MIC PAO1 ([2]; Table 4) [µM] | MIC E. faecium VRE 700221 [3] | MIC VRE 700221 [3] | MIC SA-147 ([5]; Table 1B) | MIC SA-147 ([5]; Table 3) | MIC S. epidermidis MRSE 35984 [6] | MIC MRSE 35984 [6] [a micromolar] | MIC SA-156 ([7]; Table 1B) | MIC SA-156 ([7]; Table 3) | MIC A. baumannii 1794 [8] | MIC A. bau. 1794 [8] [µM] | MIC MRSA 1707 (MRSA BAA-1707) | MIC ([10]; Table 1B) [µM] | MIC ([10]; Table 3) [µM] | MIC MRSA-2 ([11]; Table 1A) | MIC MRSA-2 ([11]; Table 1B) | MIC MRSA-2 ([11]; Table 3) | MIC MRSA-2 ([11]; Table 4) [a micromolar] | MIC MRSA BAA-44 (MRSA BAA-44; Table 1B) | further results
CCCCCCCCCCCCCCCCn1cc[n+](Cc2cccc(OC)c2)c1C.[Br-] [Compound 17] | > 100 | >100 | 1.56 µM | 1.56 µM | 2.35^a μM | 2.35^a μM | 2.35^a | 2.35 | 2.35^a μM | 2.35^a μM | >100* | >100 | 1.56 µM | 3.13 | 3.13 | 1.56 µM | 2.35^a μM | 2.35^a μM | 2.35 | 2.35^a μM | MIC ([1]; Table 1B): 3.13 µM; MIC ([1]; Table 3): 3.13 µM; MIC ([4]; Table 1B): 3.13 µM; MIC ([4]; Table 3): 3.13 µM; MIC MRSA-1 ([9]; Table 1B): 4.69^a μM; MIC MRSA-1 ([9]; Table 3): 4.69^a μM; MIC (MRSA BAA-1707; Table 1B): 1.56 µM; MIC (MRSA BAA-1707; Table 3): 1.56 µM; MIC MRSA BAA-44 (MRSA BAA-44; Table 3): 2.35^a μM
CCCCCCCCCCCCCCCCn1cc[n+](CCCC)c1C.[Br-] [Compound 9] | > 100 | >100 | 1.17^a | 1.17a micromolar | 1.17^a μM | 1.17^a μM | 1.17^a | 1.17 | 2.35^s μM | 2.35^a μM | 12.5 | 12.5 | 2.35a micromolar | 1.56 | 1.56 | 2.35^a | 2.35^a μM | 2.35^a μM | 2.35 | 2.35^a μM | MIC SA-138 ([1]; Table 1B): 1.17^a μM; MIC SA-138 ([1]; Table 3): 1.17^a μM; MIC S. aureus 29213 ([4]; Table 1B): 2.35^a μM; MIC S. aureus 29213 ([4]; Table 3): 2.35^a μM; MIC ([9]; Table 1B): 1.56 µM; MIC ([9]; Table 3): 1.56 µM; MIC MRSA BAA-1707 (MRSA BAA-1707; Table 1B): 2.35^a μM; MIC MRSA BAA-1707 (MRSA BAA-1707; Table 3): 2.35^a μM; MIC MRSA BAA-44 (MRSA BAA-44; Table 3): 2.35^a μM

From US11419335B2, “N-arylated analogues and uses thereof” (University of Florida Research Foundation, Incorporated, priority 2016, dated 2022)
